Reference: patent US12291508B2, “Hydrazide containing nuclear transport modulators and uses thereof” (Karyopharm Therapeutics Inc., priority 2011, dated 2025)
Where a name gives a salt, the structure may show the parent alone.

Assays:
[1] = tested on: MM.1S multiple myeloma cell line; test: CellTiter 96 AQueous One Solution cell proliferation assay, MM.1S; assay type: cell-based; conditions: Homo sapiens, MM1.S, 72 h of treatment, read-out: Cytotoxicity Assay
Source text: The CellTiter 96® AQueous One Solution cell proliferation assay (Promega) was used on MM.1S multiple myeloma cell line to study the cytotoxic and cytostatic properties of the compounds. The assay is based on the cleavage of the tetrazolium salt, MTS, in the presence of an electron-coupling reagent PES (phenazine ethosulfate). The MTS tetrazolium compound is bioreduced by cells into a colored formazan product that is soluble in tissue culture medium. This conversion is presumably accomplished by NADPH or NADH produced by dehydrogenase enzymes in metabolically active cells. Assays are performed by adding a small amount of the CellTiter 96® AQueous One solution reagent directly to culture wells, incubating for 1-4 hours and then recording the absorbance at 490 nm with a 96-well plate reader.
The cells were seeded at 5×10^3 to 1.5×10^4 cells in each well of a 96-well plate in 100 μL of fresh culture medium and adherent cells were allowed to attach overnight. The stock solutions of the compounds were diluted in cell culture medium to obtain eight concentrations of each drug, ranging from 1 nM to 30 μM and DMSO at less than 1% v/v was used as a negative control. The resulting drug solutions were transferred onto the cells. After 72 h of treatment, 20 μl of CellTiter 96® AQueous reagent was added into each well of the 96-well assay plates and the plate was incubated at 37° C. for 1-4 hours in a humidified, 5% CO2 atmosphere. Then the absorbance of each well was recorded at 490 nm using a 96-well plate reader. In most cases, the assay was performed in triplicate and the results were presented as half maximal inhibitory concentration (IC50). Optical density versus compound concentration was plotted and analyzed using non-linear regression equations (IDBS XLfit) and the IC50 for each compound was calculated.

[2] = molecular target: T1, CRM1-mediated nuclear export (Homo sapiens, UniProt O14980); test: RevGFP assay, inhibition of nuclear export; assay type: cell-based; conditions: U2OS-RevGFP cells, about 1 hr incubation; read-out: Rev Export
T1 construct: endogenous in cells; host or cells: U2OS-RevGFP cells
Description: The ability of exemplary compounds of the invention to inhibit CRM1-mediated nuclear export was assessed in a RevGFP assay. Rev is a protein from human immunodeficiency virus type 1 (HIV-1) and contains a nuclear export signal (NES) in its C-terminal domain and a nuclear localization signal (NLS) in its N-terminal domain. Nuclear export of Rev protein is dependent on the classical NES/CRM1 pathway (Neville et al. 1997).
In this assay, U2OS-RevGFP cells were seeded onto clear-bottomed, black, 384-well plates the day before the experiment. Compounds were serially diluted 1:2 in DMEM, starting from 40 μM in a separate, 384-well plate, and then transferred onto the cells. The cells were incubated with compound for about 1 hr before fixation with 3.7% formaldehyde and nuclei staining with Hoechst 33258. The amount of GFP in cell nuclei was measured and the IC50 of each compound was determined (Kau et al. 2003).

[3] = Brain to Plasma (B:P) ratio in mice; assay type: in vivo; conditions: 10 mg/kg po, 2 hours post-dose; for Kp at 2 h: mouse, brain/plasma
Description: Brain to Plasma (B:P) Ratio. […] Following collection, brain tissue was rinsed with cold saline, dried on filter paper, weighed and snap-frozen by placing on dry ice. All samples were stored frozen at approximately −80° C. until analysis. […] Plasma samples were treated with the identical method (except homogenization step) and the concentration of compound in each matrix was calculated based on generated standard curves.

[4] = Pharmacokinetic (PK) assay, plasma AUC in mice; assay type: in vivo; conditions: 10 mg/kg po; for AUC(0-inf): mouse, plasma
Description: AUC. Blood was collected from mice (N=3) to contribute to the total of 10 time points (pre-dose, 5 min, 15 min, 30 min, 1 hour, 2 hours, 4 hours, 8 hours, 12 hours and 24 hours post dose). Mice were bled on a rotating basis, each mouse contributing 3 time points to the blood collection. At the designated time points, animals were anaesthetized under isoflurane, and approximately 110 μL of blood per time point was collected via retro-orbital puncture into pre-cooled K2EDTA (anti-coagulant) tubes. Blood samples were put on wet ice and centrifuged (2000 g, 5 min at 4° C.) to obtain plasma within 30 minutes of sample collection. All samples were stored frozen at approximately −80° C. until analysis. Prior to analysis, samples were mixed with internal standard (dexamethasone) in acetonitrile, vortexed, centrifuged, and supernatant was injected for analysis. Concentration of compounds in plasma was determined using LC-MS-MS instrumentation (API 4000, Triple Quadruple with electrospray ionization; Acuity Ultra Performance Liquid Chromatography column C18, with MeOH and formic acid as organic solvents). AUC values were calculated using WinNonlin Professional 6.2 software package, non-compartmental pharmacokinetic model NCA200.

T1 sequence (O14980 whole entry): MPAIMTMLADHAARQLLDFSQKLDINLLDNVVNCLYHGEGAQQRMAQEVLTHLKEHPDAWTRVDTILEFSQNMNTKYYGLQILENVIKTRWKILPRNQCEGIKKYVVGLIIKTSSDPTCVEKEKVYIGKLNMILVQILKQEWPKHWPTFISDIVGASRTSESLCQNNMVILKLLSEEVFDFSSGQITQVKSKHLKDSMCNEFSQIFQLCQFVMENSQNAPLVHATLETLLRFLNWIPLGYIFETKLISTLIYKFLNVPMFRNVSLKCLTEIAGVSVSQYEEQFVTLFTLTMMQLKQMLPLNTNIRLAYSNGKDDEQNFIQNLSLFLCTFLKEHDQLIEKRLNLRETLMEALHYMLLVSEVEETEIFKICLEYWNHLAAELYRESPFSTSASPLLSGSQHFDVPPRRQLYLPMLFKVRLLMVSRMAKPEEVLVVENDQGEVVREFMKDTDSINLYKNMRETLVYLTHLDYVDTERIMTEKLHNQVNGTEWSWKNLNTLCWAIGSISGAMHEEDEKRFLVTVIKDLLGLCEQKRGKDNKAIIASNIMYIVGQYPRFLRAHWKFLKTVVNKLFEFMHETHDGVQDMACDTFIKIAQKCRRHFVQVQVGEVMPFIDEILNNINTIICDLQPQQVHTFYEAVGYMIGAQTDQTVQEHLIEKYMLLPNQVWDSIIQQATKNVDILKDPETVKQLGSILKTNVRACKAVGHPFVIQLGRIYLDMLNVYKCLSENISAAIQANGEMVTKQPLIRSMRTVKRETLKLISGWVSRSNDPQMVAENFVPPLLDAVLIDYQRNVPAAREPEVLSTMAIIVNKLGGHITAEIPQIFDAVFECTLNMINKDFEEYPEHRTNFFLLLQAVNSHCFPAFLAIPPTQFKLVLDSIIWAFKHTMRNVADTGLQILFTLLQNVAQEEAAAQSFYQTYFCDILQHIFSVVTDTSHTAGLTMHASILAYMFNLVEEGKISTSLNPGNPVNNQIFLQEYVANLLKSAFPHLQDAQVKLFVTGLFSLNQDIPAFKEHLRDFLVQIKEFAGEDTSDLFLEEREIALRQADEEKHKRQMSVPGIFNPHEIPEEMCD

SMILES	IC50 [1]	further results
O=C(/C=C\n1cnc(-c2cc(C(F)(F)F)cc(C(F)(F)F)c2)n1)NN1CCCC1 [Compound I-6, (Z)-3-(3-(3,5-bis(trifluoromethyl)phenyl)-1H-1,2,4-triazol-1-yl)-N-(pyrrolidin-1-yl)acrylamide]	≤ 1000 nM	–
CN(NC(=O)/C=C\n1cnc(-c2cc(C(F)(F)F)cc(C(F)(F)F)c2)n1)c1ccccn1 [Compound I-7, (Z)-3-(3-(3,5-bis(trifluoromethyl)phenyl)-1H-1,2,4-triazol-1-yl)-N‘-methyl-N’-(pyridin-2-yl)acrylohydrazide]	≤ 1000 nM	IC50 [2]: ≤ 1000 nM; Kp at 2 h [3]: 1.5; AUC(0-inf) [4]: 12200 ng·h/mL
CN(NC(=O)/C=C\n1cnc(-c2cc(C(F)(F)F)cc(C(F)(F)F)c2)n1)c1cnccn1 [Compound I-8, (Z)-3-(3-(3,5-bis(trifluoromethyl)phenyl)-1H-1,2,4-triazol-1-yl)-N′-methyl-N′-(pyrazin-2-yl)acrylohydrazide]	≤ 1000 nM	IC50 [2]: ≤ 1000 nM; Kp at 2 h [3]: 2.1; AUC(0-inf) [4]: 4600 ng·h/mL
Cc1cccnc1N(C)NC(=O)/C=C\n1cnc(-c2cc(C(F)(F)F)cc(C(F)(F)F)c2)n1 [Compound I-9, (Z)-3-(3-(3,5-bis(trifluoromethyl)phenyl)-1H-1,2,4-triazol-1-yl)-N′-methyl-N′-(3-methylpyridin-2-yl)acrylohydrazide]	≤ 1000 nM	–
Cc1ccc(NNC(=O)/C=C\n2cnc(-c3cc(C(F)(F)F)cc(C(F)(F)F)c3)n2)nc1 [Compound I-10, (Z)-3-(3-(3,5-bis(trifluoromethyl)phenyl)-1H-1,2,4-triazol-1-yl)-N′-(5-methylpyridin-2-yl)acrylohydrazide]	≤ 1000 nM	Kp at 2 h [3]: 0.77; AUC(0-inf) [4]: 4170 ng·h/mL
CN(NC(=O)/C=C\n1cnc(-c2cc(C(F)(F)F)cc(C(F)(F)F)c2)n1)c1cccnc1 [Compound I-11, (Z)-3-(3-(3,5-bis(trifluoromethyl)phenyl)-1H-1,2,4-triazol-1-yl)-N′-methyl-N′-(pyridin-3-yl)acrylohydrazide]	≤ 1000 nM	–
O=C(/C=C\n1cnc(-c2cc(C(F)(F)F)cc(C(F)(F)F)c2)n1)NNc1cccnc1 [Compound I-13, (Z)-3-(3-(3,5-bis(trifluoromethyl)phenyl)-1H-1,2,4-triazol-1-yl)-N′-(pyridin-3-yl)acrylohydrazide]	≤ 1000 nM	–
O=C(/C=C\n1cnc(-c2cc(C(F)(F)F)cc(C(F)(F)F)c2)n1)NNc1cnc2ccccc2n1 [Compound I-14, (Z)-3-(3-(3,5-bis(trifluoromethyl)phenyl)-1H-1,2,4-triazol-1-yl)-N′-(quinoxalin-2-yl)acrylohydrazide]	≤ 1000 nM	–
O=C(/C=C\n1cnc(-c2cc(C(F)(F)F)cc(C(F)(F)F)c2)n1)NNC1CCS(=O)(=O)C1 (centres unmarked) [Compound I-15, (Z)-3-(3-(3,5-bis(trifluoromethyl)phenyl)-1H-1,2,4-triazol-1-yl)-N′-(1,1-dioxotetrahydrothiophen-3yl)acrylohydrazide]	≤ 1000 nM	–
O=C(/C=C\n1cnc(-c2cc(C(F)(F)F)cc(C(F)(F)F)c2)n1)NN1CCCCCC1 [Compound I-16, (Z)—N-(azepan-1-yl)-3-(3-(3,5-bis(trifluoromethyl)phenyl)-1H-1,2,4-triazol-1-yl)acrylamide]	≤ 1000 nM	–
Cc1cc(NNC(=O)/C=C\n2cnc(-c3cc(C(F)(F)F)cc(C(F)(F)F)c3)n2)nc(C)n1 [Compound I-17, (Z)-3-(3-(3,5-bis(trifluoromethyl)phenyl)-1H-1,2,4-triazol-1-yl)-N′-(2,6-dimethylpyrimidin-4-yl)acrylohydrazide]	≤ 1000 nM	–
O=C(/C=C/n1cnc(-c2cc(C(F)(F)F)cc(C(F)(F)F)c2)n1)NNc1cnccn1 [Compound I-18, (E)-3-(3-(3,5-bis(trifluoromethyl)phenyl)-1H-1,2,4-triazol-1-yl)-N′-(pyrazin-2-yl) acrylohydrazide]	≤ 1000 nM	AUC(0-inf) [4]: 7140 ng·h/mL
O=C(/C=C\n1cnc(-c2cc(C(F)(F)F)cc(C(F)(F)F)c2)n1)NNc1ccncc1 [Compound I-19, (Z)-3-(3-(3,5-bis(trifluoromethyl)phenyl)-1H-1,2,4-triazol-1-yl)-N′-(pyridin-4-yl) acrylohydrazide hydrochloride]	≤ 1000 nM	Kp at 2 h [3]: 0.2; AUC(0-inf) [4]: 4020 ng·h/mL
O=C(/C=C\n1cnc(-c2cc(C(F)(F)F)cc(C(F)(F)F)c2)n1)NN1CCN(Cc2ccccc2)CC1 [Compound I-20, (Z)-N-(4-benzylpiperazin-1-yl)-3-(3-(3,5-bis(trifluoromethyl)phenyl)-1H-1,2,4-triazol-1-yl) acrylamide]	≤ 1000 nM	–
CCN1CCN(NC(=O)/C=C\n2cnc(-c3cc(C(F)(F)F)cc(C(F)(F)F)c3)n2)CC1 [Compound I-21, (Z)-3-(3-(3,5-bis(trifluoromethyl)phenyl)-1H-1,2,4-triazol-1-yl)-N-(4-ethylpiperazin-1-yl)acrylamide]	≤ 1000 nM	–
O=C(/C=C\n1cnc(-c2cc(C(F)(F)F)cc(C(F)(F)F)c2)n1)NN1CCOCC1 [Compound I-22, (Z)-3-(3-(3,5-bis(trifluoromethyl)phenyl)-1H-1,2,4-triazol-1-yl)-N-morpholinoacrylamide]	≤ 1000 nM	–
O=C(/C=C\n1cnc(-c2cc(C(F)(F)F)cc(C(F)(F)F)c2)n1)NNc1ccncn1 [Compound I-23, (Z)-3-(3-(3,5-bis(trifluoromethyl)phenyl)-1H-1,2,4-triazol-1-yl)-N′-(pyrimidin-4-yl)acrylohydrazide]	≤ 1000 nM	–
O=C(/C=C\n1cnc(-c2cc(C(F)(F)F)c(Cl)c(C(F)(F)F)c2)n1)NNc1cnccn1 [Compound I-24, (Z)-3-(3-(4-chloro-3,5-bis(trifluoromethyl)phenyl)-1H-1,2,4-triazol-1-yl)-N′-(pyrazin-2-yl)acrylohydrazide]	≤ 1000 nM	Kp at 2 h [3]: 0.7; AUC(0-inf) [4]: 3350 ng·h/mL
O=C(/C=C\n1cnc(-c2cc(C(F)(F)F)cc(C(F)(F)F)c2)n1)NNC1CC1 [Compound I-25, (Z)-3-(3-(3,5-bis(trifluoromethyl)phenyl)-1H-1,2,4-triazol-1-yl)-N′-cyclopropylacrylohydrazide]	≤ 1000 nM	–
O=C(/C=C\n1cnc(-c2cc(C(F)(F)F)cc(C(F)(F)F)c2)n1)NN1CC(O)C1 [Compound I-26, (Z)-3-(3-(3,5-bis(trifluoromethyl)phenyl)-1H-1,2,4-triazol-1-yl)-N-(3-hydroxyazetidin-1-yl)acrylamide]	≤ 1000 nM	–
COc1cc(-c2ncn(/C=C\C(=O)OC(C)C)n2)cc(C(F)(F)F)c1 [Compound X-1, reference compound]	≤ 1000 nM	IC50 [2]: ≤ 1000 nM; AUCInf ([4]; 10 mg/kg): below the limit of detection
CC(C)OC(=O)/C=C\n1cnc(-c2cc(OC(C)C)cc(C(F)(F)F)c2)n1 [Compound X-2, reference compound]	≤ 1000 nM	IC50 [2]: ≤ 1000 nM
O=C(/C=C\n1cnc(-c2cc(C(F)(F)F)cc(C(F)(F)F)c2)n1)N1CC(F)(F)C1 [Compound X-3, reference compound]	≤ 1000 nM	IC50 [2]: ≤ 1000 nM; B:P [3]: 5.0
